In patent US10865216B2, “Tricyclic Gyrase inhibitors” (MERCK SHARP & DOHME CORP., priority 2012, dated 2020):
≈ marks a conversion by molar mass, not a printed value.

What was measured:
E. coli ATCC 25922 = test: MIC, E. coli ATCC 25922; format: cell-based; details: E. coli; Alamar Blue read after overnight incubation at 35° C.
S. aureus ATCC 13709 = test: MIC, S. aureus ATCC 13709; format: cell-based; details: S. aureus; Alamar Blue read after overnight incubation at 35° C.

SMILES | MIC Ec (E. coli ATCC 25922) | MIC Sa (S. aureus ATCC 13709)
CNc1cc(F)cc2c1[nH]c1nc(Oc3cncc(Cl)c3)nc(N3CC(N)C4(CC4)C3)c12 (stereo not shown) [Compound 4.273] | 2 µg/mL (≈ 4.41 µM) | ≤0.5 µg/mL
CNc1cc(F)cc2c1[nH]c1nc(Oc3cnc(C4CCC4)nc3)nc(N3CC(N)C4(CC4)C3)c12 (stereo not shown) [Compound 4.287] | ≤0.5 µg/mL | ≤0.5 µg/mL
CNc1cc(F)cc2c1[nH]c1nc(Oc3ccc4c(N)nc(C)nc4c3)nc(N3CC4C(N)C4C3)c12 (stereo not shown) [Compound 4.288] | >16 µg/mL | 4 µg/mL (≈ 8.24 µM)
CNc1cc(F)cc2c1[nH]c1nc(Oc3cnc4ccoc4c3)nc(N3CC4CC(N)C4C3)c12 (stereo not shown) [Compound 4.290] | ≤0.5 µg/mL | ≤0.5 µg/mL
CNc1cc(F)cc2c1[nH]c1nc(Oc3cnc4ccoc4c3)nc(N3CC4C(N)C4C3)c12 (stereo not shown) [Compound 4.291] | ≤0.5 µg/mL | ≤0.5 µg/mL
CNc1cc(F)cc2c1[nH]c1nc(Oc3cnc4c(c3)OCCO4)nc(N3CC4CC(N)C4C3)c12 (stereo not shown) [Compound 4.294] | 1 µg/mL (≈ 2.09 µM) | ≤0.5 µg/mL
CNc1cc(F)cc2c1[nH]c1nc(Oc3cnc(N4CC(O)C4)nc3)nc(N3CC4C(N)C4C3)c12 (stereo not shown) [Compound 4.298] | 2 µg/mL (≈ 4.19 µM) | ≤0.5 µg/mL
CNc1cc(F)cc2c1[nH]c1nc(Oc3ccc4c(c3)C(=O)NCC4)nc(N3CC4C(N)C4C3)c12 (stereo not shown) [Compound 4.301] | 1 µg/mL (≈ 2.11 µM) | ≤0.5 µg/mL
CNc1cc(F)cc2c1[nH]c1nc(Oc3cncc(C)c3)nc(N3CC4CC(N)C4C3)c12 (stereo not shown) [Compound 4.303] | ≤0.5 µg/mL | ≤0.5 µg/mL
CNc1cc(F)cc2c1[nH]c1nc(Oc3ccc(C(C)=O)nc3)nc(N3CC4CCNC4C3)c12 (stereo not shown) [Compound 4.309] | ≤0.5 µg/mL | ≤0.5 µg/mL
CNc1cc(F)cc2c1[nH]c1nc(Oc3cnc4[nH]cnc4c3)nc(N3CC4C(N)C4C3)c12 (stereo not shown) [Compound 4.311] | >16 µg/mL | 4 µg/mL (≈ 8.98 µM)
CNc1cc(F)cc2c1[nH]c1nc(Oc3cnc4[nH]cnc4c3)nc(N3CC4CCNC4C3)c12 (stereo not shown) [Compound 4.312] | >16 µg/mL | 16 µg/mL (≈ 34.8 µM)
CNc1cc(F)cc2c1[nH]c1nc(Oc3cnc(C(C)(C)C)nc3)nc(N3CC4CC(N)C4C3)c12 (stereo not shown) [Compound 4.316] | 1 µg/mL (≈ 2.1 µM) | ≤0.5 µg/mL
CNc1cc(F)cc2c1[nH]c1nc(Oc3cnc(C#N)c(C)c3)nc(N3CC(N)C4(CC4)C3)c12 (stereo not shown) [Compound 4.324] | ≤0.5 µg/mL | ≤0.5 µg/mL
CNc1cc(F)cc2c1[nH]c1nc(Oc3cnc(C#N)c(C)c3)nc(N3CC4(CCC4N)C3)c12 (stereo not shown) [Compound 4.326] | ≤0.5 µg/mL | ≤0.5 µg/mL
CNc1cc(F)cc2c1[nH]c1nc(Oc3cnc4c(ccn4C)c3)nc(N3CC4CC(N)C4C3)c12 (stereo not shown) [Compound 4.328] | 1 µg/mL (≈ 2.12 µM) | ≤0.5 µg/mL

SMILES | MIC Ec (E. coli ATCC 25922) | MIC Sa (S. aureus ATCC 13709)
CNc1cc(F)cc2c1[nH]c1nc(Oc3ccc(C#N)nc3)nc(N3CC(N)C4(CC4)C3)c12 (stereo not shown) [Compound 4.329] | ≤0.5 µg/mL | ≤0.5 µg/mL
CNc1cc(F)cc2c1[nH]c1nc(Oc3ccc(C#N)nc3)nc(N3CCC(N)C3)c12 (stereo not shown) [Compound 4.331] | ≤0.5 µg/mL | ≤0.5 µg/mL
CNc1cc(F)cc2c1[nH]c1nc(Oc3ccc(C#N)nc3)nc(N3CC4CC(N)C4C3)c12 (stereo not shown) [Compound 4.332] | ≤0.5 µg/mL | ≤0.5 µg/mL
CNc1cc(F)cc2c1[nH]c1nc(Oc3ccc(C#N)nc3)nc(N3CC4(CCC4N)C3)c12 (stereo not shown) [Compound 4.333] | ≤0.5 µg/mL | ≤0.5 µg/mL
CNc1cc(F)cc2c1[nH]c1nc(Oc3ccc4oc(C)nc4c3)nc(N3CC4CCC(N)C4C3)c12 (stereo not shown) [Compound 4.336] | 1 µg/mL (≈ 2.05 µM) | ≤0.5 µg/mL
CNc1cc(F)cc2c1[nH]c1nc(Oc3cnc4ccc[n+]([O-])c4c3)nc(N3CC4(CCC4N)C3)c12 (stereo not shown) [Compound 4.342] | 4 µg/mL (≈ 8.22 µM) | ≤0.5 µg/mL
CNc1cc(F)cc2c1[nH]c1nc(Oc3cnc(N4CCCC4=O)nc3)nc(N3CC4C(N)C4C3)c12 (stereo not shown) [Compound 4.345] | 2 µg/mL (≈ 4.09 µM) | ≤0.5 µg/mL
CNc1cc(F)cc2c1[nH]c1nc(Oc3cnc(CC(=O)N4CC[C@H](N)C4)nc3)nc(N3C[C@H](N)C4(CC4)C3)c12 [Compound 4.372] | 16 µg/mL (≈ 29.3 µM) | 4 µg/mL (≈ 7.32 µM)
CNc1cc(F)cc2c1[nH]c1nc(Oc3cnc(CC(=O)N4CC(N(C)C)C4)nc3)nc(N3C[C@H](N)C4(CC4)C3)c12 [Compound 4.373] | 8 µg/mL (≈ 14.3 µM) | 2 µg/mL (≈ 3.57 µM)
CNc1cc(F)cc2c1[nH]c1nc(Oc3cnc(C(N)=O)nc3)nc(N3C[C@H](N)C4(CC4)C3)c12 [Compound 4.375] | 4 µg/mL (≈ 8.63 µM) | ≤0.5 µg/mL
CCNC(=O)c1cncc(Oc2nc(NCC)c3c(n2)[nH]c2c(NC)cc(F)cc23)c1 [Compound 4.384] | >16 µg/mL | 1 µg/mL (≈ 2.36 µM)
CNc1cc(F)cc2c1[nH]c1nc(Oc3cnc(-c4nccn4C)nc3)nc(N3C[C@H](N)C4(CC4)C3)c12 [Compound 4.399] | 2 µg/mL (≈ 4 µM) | ≤0.5 µg/mL
CNc1cc(F)cc2c1[nH]c1nc(Oc3cnc(NCC4CCCO4)nc3)nc(N3C[C@H](N)C4(CC4)C3)c12 (stereo partly shown) [Compound 4.406] | 1 µg/mL (≈ 1.92 µM) | ≤0.5 µg/mL
CNc1cc(F)cc2c1[nH]c1nc(Oc3cnc(NCC(O)CO)nc3)nc(N3C[C@H](N)C4(CC4)C3)c12 (stereo partly shown) [Compound 4.407] | >16 µg/mL | 2 µg/mL (≈ 3.93 µM)
CNc1cc(F)cc2c1[nH]c1nc(Oc3cnc(C)nc3)nc(-c3cncc(F)c3)c12 [Compound 4.417] | 1 µg/mL (≈ 2.38 µM) | ≤0.5 µg/mL

Second part, the compound after the results:

MIC Ec (E. coli ATCC 25922) | MIC Sa (S. aureus ATCC 13709) | SMILES
≤0.5 µg/mL | ≤0.5 µg/mL | CNc1cc(F)cc2c1[nH]c1nc(Oc3cncc(Cl)c3)nc(N3CC4C(N)C4C3)c12 (stereo not shown) [Compound 4.272]
≤0.5 µg/mL | ≤0.5 µg/mL | CNc1cc(F)cc2c1[nH]c1nc(Oc3cncc(Cl)c3)nc(N3CC(N)C3)c12 [Compound 4.277]
≤0.5 µg/mL | ≤0.5 µg/mL | CNc1cc(F)cc2c1[nH]c1nc(Oc3cnc(C4CCC4)nc3)nc(N3CC4C(N)C4C3)c12 (stereo not shown) [Compound 4.286]
1 µg/mL (≈ 2.11 µM) | ≤0.5 µg/mL | CNc1cc(F)cc2c1[nH]c1nc(Oc3cnc4ccoc4c3)nc(N3CC4CCC(N)C4C3)c12 (stereo not shown) [Compound 4.293]
≤0.5 µg/mL | ≤0.5 µg/mL | CNc1cc(F)cc2c1[nH]c1nc(Oc3cnc(N4CCC4)nc3)nc(N3CC4C(N)C4C3)c12 (stereo not shown) [Compound 4.296]
>16 µg/mL | 8 µg/mL (≈ 17.4 µM) | CNc1cc(F)cc2c1[nH]c1nc(Oc3cnc4[nH]cnc4c3)nc(N3CC4CC(N)C4C3)c12 (stereo not shown) [Compound 4.310]
≤0.5 µg/mL | ≤0.5 µg/mL | CNc1cc(F)cc2c1[nH]c1nc(Oc3cnc(C(C)(C)C)nc3)nc(N3CC4C(N)C4C3)c12 (stereo not shown) [Compound 4.314]
1 µg/mL (≈ 2.04 µM) | ≤0.5 µg/mL | CNc1cc(F)cc2c1[nH]c1nc(Oc3ccc4ncsc4c3)nc(N3CC4CCC(N)C4C3)c12 (stereo not shown) [Compound 4.320]
1 µg/mL (≈ 1.99 µM) | ≤0.5 µg/mL | CNc1cc(F)cc2c1[nH]c1nc(Oc3ccc4sc(C)nc4c3)nc(N3CC4CC(N)CC4C3)c12 (stereo not shown) [Compound 4.321]
≤0.5 µg/mL | ≤0.5 µg/mL | CNc1cc(F)cc2c1[nH]c1nc(Oc3ccc4sc(C)nc4c3)nc(N3CC4CCC(N)C4C3)c12 (stereo not shown) [Compound 4.322]
1 µg/mL (≈ 2.18 µM) | ≤0.5 µg/mL | CNc1cc(F)cc2c1[nH]c1nc(Oc3cnc(C#N)c(C)c3)nc(N3CC4CC(N)C4C3)c12 (stereo not shown) [Compound 4.323]
≤0.5 µg/mL | ≤0.5 µg/mL | CNc1cc(F)cc2c1[nH]c1nc(Oc3cnc(C#N)c(C)c3)nc(N3CC4CC(N)C4C3)c12 (stereo not shown) [Compound 4.325]
≤0.5 µg/mL | ≤0.5 µg/mL | CNc1cc(F)cc2c1[nH]c1nc(Oc3ccc(C#N)nc3)nc(N3CC4CCNC4C3)c12 (stereo not shown) [Compound 4.330]
4 µg/mL (≈ 7.93 µM) | ≤0.5 µg/mL | CNc1cc(F)cc2c1[nH]c1nc(Oc3ccc4sc(N)nc4c3)nc(N3CC4CCC(N)C4C3)c12 (stereo not shown) [Compound 4.335]
2 µg/mL (≈ 4.28 µM) | ≤0.5 µg/mL | CNc1cc(F)cc2c1[nH]c1nc(Oc3cncc([S+](C)[O-])c3)nc(N3CC4C(N)C4C3)c12 (stereo not shown) [Compound 4.351]
≤0.5 µg/mL | ≤0.5 µg/mL | CCOC(=O)c1ncc(Oc2nc(N3C[C@H](N)C4(CC4)C3)c3c(n2)[nH]c2c(NC)cc(F)cc23)cn1 [Compound 4.402]
